From ChEMBL document CHEMBL1777731, “Design and synthesis of potent HIV-1 protease inhibitors incorporating hydroxyprolinamides as novel P2 ligands” (Bioorg Med Chem Lett, 2011)

System: HIV-1 protease (Human immunodeficiency virus 1)
Assay: Inhibition of wild type HIV1 protease expressed in Escherichia coli by fluorometric assay

SMILES | IC50 [µM]
CC(C)CN(C[C@@H](O)[C@H](Cc1ccccc1)NC(=O)O[C@H]1CN[C@H](C(N)=O)C1)S(=O)(=O)c1ccc(N)cc1 | 0.0166
CC(C)CN(C[C@@H](O)[C@H](Cc1ccccc1)NC(=O)O[C@H]1CN[C@H](C(=O)NC(C)(C)C)C1)S(=O)(=O)c1ccc(N)cc1 | 10.1
CC(C)CN(C[C@@H](O)[C@H](Cc1ccccc1)NC(=O)O[C@H]1CN[C@H](C(=O)Nc2ccccc2)C1)S(=O)(=O)c1ccc(N)cc1 | 14.8
COc1ccc(NC(=O)[C@@H]2C[C@@H](OC(=O)N[C@@H](Cc3ccccc3)[C@H](O)CN(CC(C)C)S(=O)(=O)c3ccc(N)cc3)CN2)cc1 | 0.0154
Cc1ccc(NC(=O)[C@@H]2C[C@@H](OC(=O)N[C@@H](Cc3ccccc3)[C@H](O)CN(CC(C)C)S(=O)(=O)c3ccc(N)cc3)CN2)cc1 | 0.139
COc1ccccc1NC(=O)[C@@H]1C[C@@H](OC(=O)N[C@@H](Cc2ccccc2)[C@H](O)CN(CC(C)C)S(=O)(=O)c2ccc(N)cc2)CN1 | 13
COc1cccc(NC(=O)[C@@H]2C[C@@H](OC(=O)N[C@@H](Cc3ccccc3)[C@H](O)CN(CC(C)C)S(=O)(=O)c3ccc(N)cc3)CN2)c1 | 15.2
COc1ccc(OC)c(NC(=O)[C@@H]2C[C@@H](OC(=O)N[C@@H](Cc3ccccc3)[C@H](O)CN(CC(C)C)S(=O)(=O)c3ccc(N)cc3)CN2)c1 | 11.8
COc1cc(NC(=O)[C@@H]2C[C@@H](OC(=O)N[C@@H](Cc3ccccc3)[C@H](O)CN(CC(C)C)S(=O)(=O)c3ccc(N)cc3)CN2)cc(OC)c1OC | 10.1
CC(C)(C)NC(=O)[C@@H]1CN(Cc2cccnc2)CCN1C[C@@H](O)C[C@@H](Cc1ccccc1)C(=O)N[C@H]1c2ccccc2C[C@H]1O | < 0.01
